In the NIST ThermoML archive (doi:10.1021/acs.jced.7b00584):
± gives the expanded uncertainty stated by the source.

Columns and labels:
[1] = Boiling temperature at pressure P; conditions: 101.3 kPa; Liquid; Ebulliometric method (Recirculating still)
[2] = Liquid, Ebulliometric method (Recirculating still)

Row | Structure (SMILES) | Boiling temperature at pressure P [1] | vapor or sublimation pressure ([2]; 479.1 K) | vapor or sublimation pressure ([2]; 489.25 K) | vapor or sublimation pressure ([2]; 318.85 K) | vapor or sublimation pressure ([2]; 328.15 K) | vapor or sublimation pressure ([2]; 450.25 K) | vapor or sublimation pressure ([2]; 462.65 K)
1 | OCCCCO [1,4-butanediol] | 228.00 ± 0.11 °C | 50 ± 1 kPa | 70 ± 1 kPa |  |  |  | 
2 | C1CCOC1 [tetrahydrofuran] | 65.97 ± 0.11 °C |  |  | 50 ± 1 kPa | 70 ± 1 kPa |  | 
3 | O=C1CCCO1 [γ-butyrolactone] | 204.00 ± 0.11 °C |  |  |  |  | 50 ± 1 kPa | 70 ± 1 kPa
